Measured values as given in the supplement of paper PMC11061612.

Tests used:
Experiment in all cases: combination Emax (second highest fraction inhibited in the dose matrix, 72 h); higher = more inhibition; extreme values may be limits of the assay
[1] = tested on: YT (Other Blood Carcinomas)
Summary of the method: (§1)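 After 24 hours at 37°C and 5% CO2 in 1536-well plates, cells in DMEM/F12 or RPMI plus 10% FBS received two-drug dose matrices for 72 hours. Viability came from CellTiter-Glo 2.0 luminescence and was scaled as inhibition, anchored at 0 by vehicle wells and at 1 by blank wells. Combination Emax is taken as the second-highest inhibition in the matrix, and Bliss excess as the observed combination effect less EA + EB − EA·EB, with EA and EB the single-agent effects.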

[2] = tested on: SKN-3 (Head and Neck Carcinoma)
Summary of the method: as §1

D-392MG (Glioblastoma) = tested on: D-392MG (Glioblastoma)
Summary of the method: as §1

[3] = tested on: SNU-61 (Colorectal Carcinoma)
Summary of the method: as §1

CS1 (Chondrosarcoma) = tested on: CS1 (Chondrosarcoma)
Summary of the method: as §1

[4] = tested on: DOK (Oral Cavity Carcinoma)
Summary of the method: as §1

[5] = tested on: EKVX (Non-Small Cell Lung Carcinoma)
Summary of the method: as §1

EW-22 (Ewing's Sarcoma) = tested on: EW-22 (Ewing's Sarcoma)
Summary of the method: as §1

[6] = tested on: SK-UT-1 (Other Solid Carcinomas)
Summary of the method: as §1

[7] = tested on: 647-V (Bladder Carcinoma)
Summary of the method: as §1

[8] = tested on: SW48 (Colorectal Carcinoma)
Summary of the method: as §1

[9] = tested on: SNG-M (Endometrial Carcinoma)
Summary of the method: as §1

[10] = tested on: SW948 (Colorectal Carcinoma)
Summary of the method: as §1

[11] = tested on: ETK-1 (Biliary Tract Carcinoma)
Summary of the method: as §1

[12] = tested on: WSU-DLCL2 (B-Cell Non-Hodgkin's Lymphoma)
Summary of the method: as §1

[13] = tested on: CAL-39 (Other Solid Carcinomas)
Summary of the method: as §1

H4 (Low Grade Glioma) = tested on: H4 (Low Grade Glioma)
Summary of the method: as §1

Saos-2 (Osteosarcoma) = tested on: Saos-2 (Osteosarcoma)
Summary of the method: as §1

MCF7 (Breast Carcinoma) = tested on: MCF7 (Breast Carcinoma)
Summary of the method: as §1

[14] = tested on: TYK-nu (Ovarian Carcinoma)
Summary of the method: as §1

| Structure (SMILES) | combination Emax [1] | combination Emax [2] | combination Emax (D-392MG (Glioblastoma)) | combination Emax [3] | combination Emax (CS1 (Chondrosarcoma)) | combination Emax [4] | combination Emax [5] | combination Emax (EW-22 (Ewing's Sarcoma)) | combination Emax [6] | combination Emax [7] | combination Emax [8] | combination Emax [9] | combination Emax [10] | combination Emax [11] | combination Emax [12] | combination Emax [13] | combination Emax (H4 (Low Grade Glioma)) | combination Emax (Saos-2 (Osteosarcoma)) | combination Emax (MCF7 (Breast Carcinoma)) | combination Emax [14] |
| --- | --- | --- | --- | --- | --- | --- | --- | --- | --- | --- | --- | --- | --- | --- | --- | --- | --- | --- | --- | --- |
| Cc1c2c(nn1C)CSCc1cc(n(C)n1)CSc1cc(c3ccccc3c1)OCCCc1c(C(=O)O)n(C)c3c-2c(Cl)ccc13 [AZD5991] + C=CCn1c(=O)c2cnc(Nc3ccc(N4CCN(C)CC4)cc3)nc2n1-c1cccc(C(C)(C)O)n1 [AZD1775] (first compound max 1 µM, partner max 1 µM) | 0.998 | 0.696 | 0.417 | 0.49 | 0.563 | 0.758 | 0.316 | 0.789 | 0.613 | 0.978 | 0.402 | 0.733 | 0.714 | 0.59 | 1 | 0.677 | 0.9 | 0.801 | 0.652 | 0.761 |
| Cc1cc2ncnn2cc1Nc1ncc2c(n1)n(C1CCOCC1)c(=O)n2C [AZD7648] + O=C(c1cc(Cc2n[nH]c(=O)c3ccccc23)ccc1F)N1CCN(C(=O)C2CC2)CC1 [Olaparib] (first compound max 10 µM, 7x7, partner max 10 µM) | 0.575 | 0.0538 | 0.144 | 0.0443 | 0.221 | 0.152 | 0.147 | 0.918 | 0.158 | 0.219 | 0.246 | 0.143 | – | 0.323 | 0.307 | 0.174 | 0.585 | 0.14 | 0.29 | 0.415 |
| CN(C)CCCOc1ccc(-c2ccc3ncc4c(c3c2)n(C2CCOCC2)c(=O)n4C)cn1 [AZD0156] + CCN(CCO)CCCOc1ccc2c(Nc3cc(CC(=O)Nc4cccc(F)c4)[nH]n3)ncnc2c1 [AZD2811] (first compound max 1 µM, 7x7, partner max 1 µM) | 0.591 | 0.0518 | 0.0413 | 0.0613 | 0.301 | 0.334 | 0.0666 | 0.694 | 0.264 | 0.167 | 0.957 | 0.0754 | – | 0.21 | 0.359 | 0.33 | 0.513 | 0.369 | 0.237 | 0.304 |
| CCc1c2c(nc3ccc(O)cc13)-c1cc3c(c(=O)n1C2)COC(=O)[C@]3(O)CC [SN-38] + O=C(c1cc(Cc2n[nH]c(=O)c3ccccc23)ccc1F)N1CCN(C(=O)C2CC2)CC1 [Olaparib] (first compound max 0.3 µM, 7x7, partner max 10 µM) | 0.895 | – | 0.435 | – | 0.846 | 0.587 | 0.3 | 0.947 | 0.973 | – | 0.799 | 0.62 | 0.647 | 0.63 | 1 | 0.979 | 0.938 | 0.96 | 0.654 | 0.766 |
| CN(C)CCCOc1ccc(-c2ccc3ncc4c(c3c2)n(C2CCOCC2)c(=O)n4C)cn1 [AZD0156] + C[C@@H]1COCCN1C2=NC(=NC(=C2)C3(CC3)[S@](=N)(=O)C)C4=C5C=CNC5=NC=C4 [AZD6738] (first compound max 1 µM, 7x7, partner max 10 µM) | 0.727 | 0.414 | 0.374 | 0.299 | 0.674 | 0.264 | 0.234 | 0.905 | 0.806 | 0.491 | 0.779 | 0.964 | – | 0.632 | 0.977 | 0.5 | 0.826 | 0.394 | 0.837 | 0.713 |
| C=CCn1c(=O)c2cnc(Nc3ccc(N4CCN(C)CC4)cc3)nc2n1-c1cccc(C(C)(C)O)n1 [AZD1775] + C[C@@H]1COCCN1C2=NC(=NC(=C2)C3(CC3)[S@](=N)(=O)C)C4=C5C=CNC5=NC=C4 [AZD6738] (first compound max 1 µM, partner max 10 µM) | 0.897 | 0.648 | 0.483 | 0.404 | 0.766 | 0.545 | 0.327 | 0.902 | 0.906 | 0.769 | 0.886 | 0.947 | – | 0.665 | 1 | 0.598 | 0.994 | 0.823 | 0.73 | 0.732 |
| C[C@@H]1COCCN1c1cc(C2([S@](C)(=N)=O)CC2)nc(-c2ccnc3[nH]ccc23)n1 [AZD6738] + O=C(c1cc(Cc2n[nH]c(=O)c3ccccc23)ccc1F)N1CCN(C(=O)C2CC2)CC1 [Olaparib] (first compound max 10 µM, 7x7, partner max 10 µM) | 0.75 | 0.391 | 0.38 | 0.27 | 0.67 | 0.369 | 0.32 | 0.942 | 0.821 | 0.61 | 0.72 | 0.898 | – | 0.678 | 0.92 | 0.526 | 0.791 | 0.466 | 0.573 | 0.665 |
| CCN(CCO)CCCOc1ccc2c(Nc3cc(CC(=O)Nc4cccc(F)c4)[nH]n3)ncnc2c1 [AZD2811] + C[C@@H]1COCCN1C2=NC(=NC(=C2)C3(CC3)[S@](=N)(=O)C)C4=C5C=CNC5=NC=C4 [AZD6738] (first compound max 1 µM, 7x7, partner max 10 µM) | 0.76 | 0.222 | 0.392 | 0.297 | 0.632 | 0.44 | 0.261 | 0.894 | 0.816 | 0.524 | 0.975 | 0.932 | – | 0.562 | 0.822 | 0.467 | 0.808 | 0.588 | 0.58 | 0.717 |
| CCN(CCO)CCCOc1ccc2c(Nc3cc(CC(=O)Nc4cccc(F)c4)[nH]n3)ncnc2c1 [AZD2811] + O=C(c1cc(Cc2n[nH]c(=O)c3ccccc23)ccc1F)N1CCN(C(=O)C2CC2)CC1 [Olaparib] (first compound max 1 µM, 7x7, partner max 10 µM) | 0.309 | 0.0796 | 0.174 | 0.171 | 0.386 | 0.375 | 0.159 | 0.949 | 0.289 | 0.275 | 0.961 | 0.25 | – | 0.216 | 0.273 | 0.324 | 0.558 | 0.456 | 0.224 | 0.359 |
| C=CCn1c(=O)c2cnc(Nc3ccc(N4CCN(C)CC4)cc3)nc2n1-c1cccc(C(C)(C)O)n1 [AZD1775] + O=C(c1cc(Cc2n[nH]c(=O)c3ccccc23)ccc1F)N1CCN(C(=O)C2CC2)CC1 [Olaparib] (first compound max 1 µM, partner max 10 µM) | 0.902 | 0.171 | 0.235 | 0.302 | 0.564 | 0.457 | 0.256 | 0.894 | 0.625 | 0.654 | 0.409 | 0.668 | – | 0.515 | 0.992 | 0.402 | 0.853 | 0.613 | 0.332 | 0.698 |
| CN(C)CCCOc1ccc(-c2ccc3ncc4c(c3c2)n(C2CCOCC2)c(=O)n4C)cn1 [AZD0156] + C=CCn1c(=O)c2cnc(Nc3ccc(N4CCN(C)CC4)cc3)nc2n1-c1cccc(C(C)(C)O)n1 [AZD1775] (first compound max 1 µM, partner max 1 µM) | 0.888 | 0.139 | 0.18 | 0.248 | 0.509 | 0.375 | 0.179 | 0.616 | 0.635 | 0.446 | 0.372 | 0.58 | – | 0.515 | 0.944 | 0.376 | 0.791 | 0.494 | 0.417 | 0.679 |
| CCN(CCO)CCCOc1ccc2c(Nc3cc(CC(=O)Nc4cccc(F)c4)[nH]n3)ncnc2c1 [AZD2811] + C=CCn1c(=O)c2cnc(Nc3ccc(N4CCN(C)CC4)cc3)nc2n1-c1cccc(C(C)(C)O)n1 [AZD1775] (first compound max 1 µM, partner max 1 µM) | 0.888 | 0.148 | 0.168 | 0.212 | 0.45 | 0.463 | 0.17 | 0.678 | 0.765 | 0.491 | 0.964 | 0.482 | – | 0.479 | 0.937 | 0.415 | 0.782 | 0.704 | 0.303 | 0.708 |
| COc1nnc2ccc(N3CCC(c4ccc(OCCN5CCN(C)C(=O)[C@H]5C)cc4)CC3)nn12 [AZD5153] + Cn1cnc2c(F)c(Nc3ccc(Br)cc3Cl)c(C(=O)NOCCO)cc21 [Selumetinib] (first compound max 1 µM, 7x7, partner max 10 µM) | 0.693 | 0.531 | 0.569 | 0.69 | 0.469 | 0.648 | – | 0.517 | 0.486 | 0.61 | 0.786 | 0.632 | 0.752 | 0.463 | 0.963 | 0.827 | 0.699 | 0.516 | 0.704 | 0.755 |
| COc1nnc2ccc(N3CCC(c4ccc(OCCN5CCN(C)C(=O)[C@H]5C)cc4)CC3)nn12 [AZD5153] + C[C@@H]1COCCN1C2=NC(=NC(=C2)C3(CC3)[S@](=N)(=O)C)C4=C5C=CNC5=NC=C4 [AZD6738] (first compound max 1 µM, 7x7, partner max 10 µM) | 0.923 | 0.634 | 0.514 | 0.544 | 0.661 | 0.569 | – | 0.927 | 0.925 | 0.789 | 0.752 | 0.901 | 0.675 | 0.717 | 1 | 0.797 | 0.796 | 0.843 | 0.747 | 0.803 |
